Data as given in US20250108036A1, “COMPOSITIONS FOR REMOVING SENESCENT CELLS AND USES THEREOF” (LIFECEUTIX CO., LTD., priority 2021, published 2025).

What was measured:
Format in all cases: cell-based, human
[1] = tested on: foreskin cells in which senescence was induced by doxorubicin; assay: CellTiter-Glo cell viability of doxorubicin-induced senescent foreskin cells (Examples 1-2, 10, 11, 13; Tables 4, 63, 65); conditions: Homo sapiens, 72 h, doxorubicin-induced senescent foreskin cells, CellTiter-Glo, 0 μM = 100, read-out: Survival (%); for viability at 1.1 µM: 1.1 μM test compound; for viability at 10 µM: 10 μM test compound; for viability at 30 µM: 30 μM test compound; for viability at 90 µM: 90 μM test compound; for viability at […]: […] test compound
Protocol: After 3 days, cell viability was measured using CellTiter-Glo Luminescent Cell Viability Assay (Promega) or light microscopy.

HMGN1 [2] = assay: HMGN1 ELISA in culture medium of A549 cancer cells (Example 12, Table 66); conditions: Homo sapiens, A549, doxorubicin-induced senescent A549 cells, ELISA, DMSO = 100, read-out: HMGN1 (amount of HMGN1 secreted in the cell culture); for activity at 270 µM: test compound 270 μM; for activity at 30 µM: test compound 30 μM
HMGN1 [3] = assay: HMGN1 ELISA in culture medium of foreskin cells (Examples 10, 11; Tables 62, 63, 64); conditions: Homo sapiens, doxorubicin-treated foreskin cells, DMSO = 100; for activity at 30 µM: 30 μM test compound, read-out: HMGN1
A549 = assay: CellTiter-Glo cell viability of senescent A549 cancer cells (Example 12, Table 67); conditions: Homo sapiens, A549, doxorubicin-induced senescent A549 cancer cells, CellTiter-Glo, read-out: Survival (%); for viability at 1.1 µM: 1.1 μM test compound; for viability at 10 µM: 10 μM test compound; for viability at 30 µM: 30 μM test compound; for viability at 90 µM: 90 μM test compound; for viability at 270 µM: 270 μM test compound

Structure (SMILES)	viability at 1.1 µM [1]	viability at 10 µM [1]	viability at 30 µM [1]	viability at 90 µM [1]	viability at […] [1]	activity at 270 µM (HMGN1 [2])	activity at 90 µM (HMGN1 [3]; 90 μM test compound)	viability at 1.1 µM (A549)	viability at 10 µM (A549)	viability at 30 µM (A549)	viability at 90 µM (A549)	viability at 270 µM (A549)	viability at 270 µM ([1]; 270 μM test compound)	activity at 270 µM (HMGN1 [3]; 270 μM test compound)	activity at 30 µM (HMGN1 [2])	activity at 30 µM (HMGN1 [3])
C=C(C)[C@@H]1CC[C@]2(C(=O)O)CC[C@]3(C)[C@H](CC[C@@H]4[C@@]5(C)CC[C@H](O)C(C)(C)[C@@H]5CC[C@]43C)[C@@H]12 [LX-2005, Betulinic acid]	97.5%	87.2%	73.8%	31.5%	93.3%	252%	212%	102%	95.7%	82.9%	57.2%	5.3%				
CC1(C)C=C2[C@H]3CC[C@@H]4[C@@]5(C)CCC(=O)C(C)(C)[C@@H]5CC[C@@]4(C)[C@]3(C)CC[C@@]2(C(=O)O)CC1 [LX-2007, Moronic acid]	105%	91.2%	83.9%	47.2%	98.9%	192%		111%	96.3%	87.9%	62.8%	32.4%	1.3%	255%		
COC(=O)[C@]12CCC(C)(C)C[C@H]1[C@H]1C(=O)C=C3[C@@]4(C)C=C(C#N)C(=O)C(C)(C)[C@@H]4CC[C@@]3(C)[C@]1(C)CC2 [LX-2102, Bardoxolone methyl, reference compound]	9.4%							88.4%							233%	288%
C[C@@H]1C(=O)C(C#N)=C[C@]2(C)C3=CC(=O)[C@@H]4[C@@H]5CC(C)(C)CC[C@]5(NC(=O)C(C)(F)F)CC[C@@]4(C)[C@]3(C)CC[C@@H]12 [LX-2201]	9.8%							28.4%							326%	318%
COC(=O)[C@]12CCC(C)(C)C[C@H]1[C@H]1C(=O)C[C@@H]3[C@@]4(C)C=C(C#N)C(=O)C(C)(C)[C@@H]4CC[C@@]3(C)[C@]1(C)CC2 [LX-2301]	2.6%							21.5%							274%	283%
CC1(C)CC[C@]2(C(=O)NCC(F)(F)F)CC[C@]3(C)[C@H](C(=O)C[C@@H]4[C@@]5(C)C=C(C#N)C(=O)C(C)(C)[C@@H]5CC[C@]43C)[C@@H]2C1 [LX-2302, Dihydro-CDDO-Trifluoroethyl Amide]	48.9%				6.3%			95.9%	5.4%						313%	279%
COC(=O)N[C@]12CCC(C)(C)C[C@H]1[C@H]1C(=O)C=C3[C@@]4(C)C=C(C#N)C(=O)C(C)(C)[C@@H]4CC[C@@]3(C)[C@]1(C)CC2 [LX-2305]	19.6%							33.6%							269%	292%
CC1(C)CC[C@]2(NS(C)(=O)=O)CC[C@]3(C)[C@H](C(=O)C=C4[C@@]5(C)C=C(C#N)C(=O)C(C)(C)[C@@H]5CC[C@]43C)[C@@H]2C1 [LX-2306]	29.8%				7.1%			102%	11.5%						296%	301%
COC(=O)C[C@]12CCC(C)(C)C[C@H]1[C@H]1C(=O)C=C3[C@@]4(C)C=C(C#N)C(=O)C(C)(C)[C@@H]4CC[C@@]3(C)[C@]1(C)CC2 [LX-2307]	15.4%							4.8%							279%	271%
C[C@]12C=C(C#N)C(=O)C3(CC=CC3)C1=CC[C@@H]1[C@@H]2CC[C@]2(C)C(=O)CC[C@@H]12 [LX-2308]	49.6%				5.9%			96.6%	23.5%						287%	329%
CC1(C)CC[C@]2(C(=O)NO)CC[C@]3(C)[C@H](C(=O)C=C4[C@@]5(C)C=C(C#N)C(=O)C(C)(C)[C@@H]5CC[C@]43C)[C@@H]2C1 [LX-2309]	69.7%				2.7%			112%	14.9%						322%	307%
CONC(=O)[C@]12CCC(C)(C)C[C@H]1[C@H]1C(=O)C=C3[C@@]4(C)C=C(C#N)C(=O)C(C)(C)[C@@H]4CC[C@@]3(C)[C@]1(C)CC2 [LX-2310]	53.7%				6.9%			100%	3.5%						319%	315%
C=C(C)[C@@H]1CC[C@]2(C(=O)NCC)CC[C@]3(C)[C@H](CCC4[C@@]5(C)C=C(C#N)C(=O)C(C)(C)[C@@H]5CC[C@]43C)[C@@H]12 (stereo partly drawn) [LX-2311]	39.5%				4.1%			97.5%	8.9%						276%	271%
C[C@@H]1C(=O)C(C#N)=C[C@]2(C)c3nn(C)c(-c4ccccc4)c3CC[C@@H]12 [LX-2312]	48.6%				5.2%			96.3%	7.8%						339%	293%
COc1nc(-c2cccnc2)nc2c1CC[C@H]1[C@H](C)C(=O)C(C#N)=C[C@]21C [LX-2315]	75.2%				2.9%			98.2%	39.2%						247%	235%
COC(=O)[C@]12CCC(C)(C)C[C@H]1[C@H]1C(=O)C=C3[C@@]4(C)C=C(C#N)C(=O)[C@@H](C)[C@@H]4CC[C@@]3(C)[C@]1(C)CC2 [LX-2316]	36.6%				0.9%			106%	25.4%						263%	274%
C[C@@H]1C(=O)C(C#N)=C[C@]2(C)C3=CC(=O)[C@@H]4[C@@H]5CC(C)(C)CC[C@]5(CO)CC[C@@]4(C)[C@]3(C)CC[C@@H]12 [LX-2317]	48.2%				7.8%			93.5%	29.7%						282%	317%
CC1(C)CC[C@]2(CO)CC[C@]3(C)[C@H](C(=O)C=C4[C@@]5(C)[C@H]6O[C@@]6(C#N)C(=O)C(C)(C)[C@@H]5CC[C@]43C)[C@@H]2C1 [LX-2318]	78.3%				12.1%			94.1%	31.1%						278%	264%
C[C@@H]1C(=O)[C@]2(C#N)O[C@@H]2[C@]2(C)C3=CC(=O)[C@@H]4[C@@H]5CC(C)(C)CC[C@]5(NC(=O)C(C)(F)F)CC[C@@]4(C)[C@]3(C)CC[C@@H]12 [LX-2319]	52.9%				21.9%			96.5%	21.3%						310%	241%
Cc1noc([C@]23CCC(C)(C)C[C@H]2[C@H]2C(=O)C=C4[C@@]5(C)C=C(C#N)C(=O)C(C)(C)[C@@H]5CC[C@@]4(C)[C@]2(C)CC3)n1 [LX-2401]	46.4%				6.8%			108%	15.9%						284%	303%
CCNC(=O)CC[C@]12CCC(C)(C)C[C@H]1[C@H]1C(=O)C=C3[C@@]4(C)C=C(C#N)C(=O)C(C)(C)[C@@H]4CC[C@@]3(C)[C@]1(C)CC2 [LX-2402]	45.2%				5.1%			99.5%	5.4%						286%	287%
CNC(=O)CC[C@]12CCC(C)(C)C[C@H]1[C@H]1C(=O)C=C3[C@@]4(C)C=C(C#N)C(=O)C(C)(C)[C@@H]4CC[C@@]3(C)[C@]1(C)CC2 [LX-2403]	38.1%				15.2%			100%	3.2%						267%	319%
